Experimental findings from patent US5519010A, “Sulfated polysaccharide, pharmaceutically acceptable salt thereof, process for preparing same and medicament containing same as effective component” (Taiho Pharmaceutical Co., Ltd., priority 1989, dated 1996) are described below.

Assay [1] concerns DIC model (thrombin injected into ICR mice). Kind of assay: Effect on DIC model (thrombin-induced fatality, survival rate). In kind it is in vivo. The settings on record: dose 1 mg/kg i.v. one minute before 800 U/kg thrombin; after 24 hours. On the procedure: D-HG, FGAG and heparin were tested for an effect on DIC model in accordance with the method described in Japan J. Pharmacol, 35, 203-227 (1984).
Used as D-HG was the sodium salt obtained in Example 16, as FGAG the sodium/potassium salt obtained in Reference Example 1 and as a heparin a sodium salt having a potency of 185.6 U/mg.
A 800 U/kg of thrombin was intravenously injected into ICR mice (10 to 15 mice a group). […] The D-HG sodium salt, FGAG sodium/potassium salt or heparin sodium salt was intravenously injected one minute before the administration of thrombin.

The subject of assay [2] is citric acid-containing plasma (activated partial thromboplastin time). Kind of assay: Anti-coagulation activity in human: x2APTT. Format: biochemical. The settings on record: concentration required to double APTT of control. The text has this: (§1) Using the citric acid-containing plasma obtained from more than 6 normal persons, the D-HG sodium salt (Example 16), a FGAG sodium/potassium salt and a heparin sodium salt were each observed for the activity in respect of anticoagulation parameters (μg/ml).

In the next assay the test system is thrombin. Kind of assay: Anti-coagulation activity in human: IIaIC90 (thrombin time). In kind it is biochemical. Conditions: concentration for 90% inhibition of thrombin activity, from thrombin time; human plasma. On the procedure:
as §1
IIaIC90 is a concentration (μg/ml) for 90% inhibition of thrombin activity which was calculated by measuring the activity to prolong the thrombin time.

In the next assay the test system is factor X. Kind of assay: Anti-coagulation activity in human: XaIC50 (decomposition of synthetic substrate S2222). The settings on record: 50% inhibition of decomposition of synthetic substrate S2222. In kind it is biochemical.
From the text: as §1
XaIC50 is a medicament concentration (μg/ml) for 50% inhibition of decomposition of synthetic substrate S2222 with a factor X.

Another assay deals with factor VIII. Kind of assay: Anti-coagulation activity in human: VIII IC80 (factor VIII deficient plasma). In kind it is biochemical. The settings on record: 80% inhibition of factor VIII, contact-activated coagulation time. As for the experimental part:
as §1
VIII IC80 is a medicament concentration (μg/ml) for 80% inhibition of factor VIII which was calculated by measuring the activity to prolong the contact-activated coagulation time in the presence of a small amount of factor VIII using a factor VIII deficient plasma.

For assay [3], the system named is thrombin generation (inactivation of prothrombin in contact-activated plasma). Kind of assay: Anti-coagulation activity in human: IIaGI (thrombin generation). In kind it is biochemical. The settings on record: concentration required to double control's time for complete inactivation of prothrombin in contact-activated plasma.
From the text: as §1
IIaGI is the concentration (μg/ml) required to double the control's time for complete inactivation of prothrombin in the contact-activated plasma. This represents an activity to inhibit the thrombin generation.

For assay [4], the system named is plasma-free washed platelet. The assay is described as follows: Inhibitory activity against thrombin-induced platelets aggregation. In kind it is cell-based. Conditions: 3 μg/ml; 0.1 U/ml thrombin; rabbit washed platelets (control 86.6). As for the experimental part:
The result of addition of the D-HG sodium salt obtained in Example 16 or a heparin sodium salt having a potency of 185.6 U/mg was evaluated by observing the aggregation of platelets (expressed in an increase of light transmittance) caused by the addition of 0.1 U/ml of thrombin to a suspension of plasma-free washed platelet obtained from a rabbit.

For the substance heparin [Heparin sodium salt], in assay [1], the Survival rate was 80%. This substance also displayed a x2APTT in assay [2] of 1.2 µg/mL. The same substance returned an IIaIC90 in the assay on thrombin of 0.3 µg/mL. In addition, the XaIC50 in the assay with factor X was found to be 3.4 µg/mL. Also, the “VIII IC80” value in the assay with factor VIII amounted to 0.79 mg/L. The IIaGI in assay [3] amounted to 1.2 µg/mL. The substance also returned a Light transmittance in assay [4] of 80.2%.
